Patent publication US20230277546A1, “AGENT FOR SUPPRESSING POST-SURGICAL CANCER RECURRENCE AND/OR METASTASIS” (ONO PHARMACEUTICAL CO., LTD., priority 2017, published 2023)
Where a name gives a salt, the structure may show the parent alone.

Tests used:
malignant lung tumor = experiment: Analysis of effects of landiolol hydrochloride in patients who underwent lung resection surgery (recurrence-free and overall survival, Kaplan-Meier); format: in vivo, human
Description: Ethics committee approval was obtained before the study was started. Among the patients who underwent lung lobectomy, the outcomes were compared between those who were treated with landiolol hydrochloride and those who were not treated with it.
For each patient the following information was drawn from the medical chart from May 2012 to Mar. 31, 2017 and recorded in clinical report form (CRF). • Background of the patient (date of birth, sex, stage of lung cancer, weight, height, and performance status) • Date of the lung cancer surgery • Whether landiolol hydrochloride was administered or not, and if administered, the dose thereof • Date on which recurrence was diagnosed (date of diagnostic imaging or date on which recurrence was clinically diagnosed) • Date on which recurrence-free survival was last confirmed • Date of death • Date on which survival was last confirmed • Whether adjuvant chemotherapy was applied or not
The 2-year recurrence-free survival rate was compared between the patients who had been treated with landiolol hydrochloride and the patients who had not been treated with it to evaluate the effect of landiolol hydrochloride.
Kaplan-Meier method as described below was employed to calculate the 2-year recurrence-free survival rate.
The recurrence was defined as follows; • The recurrence included both of recurrence diagnosed on the basis of diagnostic imaging and clinical recurrence diagnosed on the basis of aggravation of a symptom instead of the diagnostic imaging. The date of recurrence was the date of the diagnostic imaging or the date on which the clinical recurrence was diagnosed. Even if an increased tumor marker was detected previously, the fact alone was not regarded as indicating recurrence and the date of recurrence was the date of the diagnostic imaging or the date on which the clinical recurrence was diagnosed. When no recurrence was diagnosed during the observation period, the patients were censored on the day of final confirmation of recurrence-free survival. • When recurrence was diagnosed by the diagnostic imaging, the event was regarded as having occurred on the date of the diagnostic imaging that gave the definitive diagnosis, not the date of the diagnostic imaging that raised the suspicion of recurrence. When recurrence was clinically diagnosed, the event was regarded as having occurred on the date of the diagnosis. • Definitive diagnosis of recurrence may be based on biopsy analysis. When recurrence was successfully diagnosed by the clinical diagnosis before the biopsy analysis, the event was regarded as having occurred on the date of the clinical diagnosis. When recurrence was not successfully diagnosed by the clinical diagnosis alone, but finally diagnosed by the biopsy analysis, the event was regarded as having occurred on the date of the biopsy analysis. • Occurrence of any one of secondary cancer, metachronous double cancers, and metachronous multiple cancers was not regarded as the event or the censor. Unless another event was observed, the patient was regarded as being recurrence-free. […]
The recurrence-free survival and the overall survival were calculated according to the following equations; • The recurrence-free survival (days)=“date of diagnosis of recurrence or date of death for any cause, whichever came earlier”−“date of surgery”+1 • The overall survival (days)=“date of death for any cause”−“date of surgery”+1 […]

[1] = system: non-small cell lung cancer; experiment: Multicenter, unblinded, randomized, controlled investigator-initiated clinical trial: perioperative landiolol hydrochloride to suppress postsurgical recurrence; format: in vivo, human; conditions: 2.5 μg/kg/min at the beginning, adjusted 0.5 to 5 μg/kg/min; continuous iv from immediately before anesthetic induction for 72 hours
Description: Patients with non-small cell lung cancer who will undergo surgery for complete resection of the cancer are involved in the study. For evaluating effectiveness and safety of landiolol hydrochloride in the patients, a multicenter, unblinded, randomized, controlled, investigator-initiated clinical trial is carried out as described below. The control group includes the patients who undergo the surgery but are not treated with landiolol hydrochloride.
Primary endpoints: recurrence-free survival (RFS) over first two postoperative years and overall survival (OS)
Secondary endpoints: <Effectiveness> For example, whether the patients are subjected to treatment of recurrence or not, and if subjected, the period until the treatment; the time until OS or the treatment of recurrence, <Safety> adverse events, incidence of postoperative complication, blood pressure, 12-lead electrocardiogram, and general laboratory test
Dosage: 2.5 μg/kg/min at the beginning and adjusted in the range of 0.5 to 5 μg/kg/min
Administration period: continuous intravenous administration is started immediately before the anesthetic induction and kept for 72 hours

[2] = vs control group without administration, after lung cancer surgery

## CC1(C)OC[C@@H](COC(=O)CCc2ccc(OC[C@@H](O)CNCCNC(=O)N3CCOCC3)cc2)O1 [landiolol hydrochloride, Landiolol hydrochloride]
Malignant lung tumor; censored patients, first two postoperative years, test group N = 28
  Censor, (%): (89.3) %
Malignant lung tumor; patients after lung resection surgery, intravenous continuous 2.5 μg/kg/min from induction to completion of anesthesia, N = 28, Kaplan-Meier
  2-year Recurrence-free survival rate [95% CI]: 89.3%
Malignant lung tumor; recurrence or death events within first two postoperative years, test group N = 28, 2.5 μg/kg/min iv continuous during anesthesia
  Event, (%): (10.7) %
Malignant lung tumor; [2]
  overall survival (Kaplan-Meier curve, FIG. 2): tendency that the administration of landiolol hydrochloride prolongs
  recurrence-free survival (Kaplan-Meier curve, FIG. 1): tendency that the administration of landiolol hydrochloride prolongs
[1]
  effect to suppress recurrence and/or metastasis of the cancer: confirms the effect
